According to patent US20100267561A1, “HERBICIDAL PYRIDAZINONE DERIVATIVES” (priority 2007, published 2010):

How the values were obtained:
Format in all cases: in vivo
[1] = tested on: giant foxtail (Setaria faberi); experiment: Test A pre-/postemergence plant response
In short: (§1)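 Scores reflect visual plant injury relative to untreated controls on a 0–100 scale, recorded approximately 10 days after simultaneous preemergence soil spraying and postemergence spraying of one- to two-leaf seedlings grown in loam–sand.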

[2] = tested on: velvetleaf (Abutilon theophrasti); experiment: Test A pre-/postemergence plant response
In short: as §1

[3] = tested on: barnyardgrass (Echinochloa crus-galli); experiment: Test A pre-/postemergence plant response
In short: as §1

[4] = tested on: pigweed (Amaranthus retroflexus); experiment: Test A pre-/postemergence plant response
In short: as §1

[5] = tested on: morningglory (Ipomoea coccinea); experiment: Test A pre-/postemergence plant response
In short: as §1

[6] = tested on: wheat (Triticum aestivum); experiment: Test A pre-/postemergence plant response
In short: as §1

[7] = tested on: large crabgrass (Digitaria sanguinalis); experiment: Test A pre-/postemergence plant response
In short: as §1

[8] = tested on: corn (Zea mays); experiment: Test A pre-/postemergence plant response
In short: as §1

[9] = tested on: barnyardgrass (Echinochloa crus-galli); experiment: Test B flooded paddy test plant response
In short: (§2)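 Compounds were added directly to paddy water over 2-leaf-stage plants in pots flooded 3 cm above soil, water depth maintained. Visual injury scored against controls after 13 to 15 days in greenhouse, 0 (none) to 100 (complete control); dash indicates no result.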

[10] = tested on: umbrella sedge (Cyperus difformis); experiment: Test B flooded paddy test plant response
In short: as §2

[11] = Postemergence, 31 g ai/ha, 0 to 100 scale (0 no effect, 100 complete control)
[12] = Postemergence, 125 g ai/ha, 0 to 100 scale, 0 no effect, 100 complete control
[13] = Preemergence, 31 g ai/ha, 0 to 100 scale, 0 is no effect, 100 is complete control
[14] = Preemergence, 125 g ai/ha, 0 to 100 scale (0 no effect, 100 complete control)
[15] = Flood (flooded paddy test), 62 g ai/ha, scale 0 to 100, 0 no effect, 100 complete control
[16] = Flood (flooded paddy test), 250 g ai/ha, scale 0 to 100, 0 no effect, 100 complete control
[17] = Postemergence, 1000 g ai/ha, 0 to 100 scale, 0 no effect, 100 complete control
[18] = Preemergence, 1000 g ai/ha, 0 to 100 scale (0 no effect, 100 complete control)
[19] = Flood (flooded paddy test), 125 g ai/ha, scale 0 to 100, 0 no effect, 100 complete control
[20] = Flood, 31 g ai/ha, scale 0 to 100
[21] = Postemergence, 500 g ai/ha, 0 to 100 scale, 0 no effect, 100 complete control
[22] = Preemergence, 500 g ai/ha, 0 to 100 scale (0 no effect, 100 complete control)

SMILES: C#CCOC(=O)Oc1cnn(C)c(=O)c1-n1nc(-c2ccc(Cl)cc2)cc1C [Compound 58]
- Plant response rating, Foxtail, Giant [1, 11]: 20
- Plant response rating, Foxtail, Giant [1, 12]: 90
- Plant response rating, Foxtail, Giant [1, 13]: 90
- Plant response rating, Foxtail, Giant [1, 14]: 100
- Plant response rating, Velvetleaf [2, 11]: 0
- Plant response rating, Velvetleaf [2, 12]: 0
- Plant response rating, Velvetleaf [2, 13]: 0
- Plant response rating, Velvetleaf [2, 14]: 0
- Plant response rating, Barnyardgrass [3, 11]: 0
- Plant response rating, Barnyardgrass [3, 12]: 80
- Plant response rating, Barnyardgrass [3, 13]: 50
- Plant response rating, Barnyardgrass [3, 14]: 100
- Plant response rating, Pigweed [4, 11]: 0
- Plant response rating, Pigweed [4, 12]: 0
- Plant response rating, Pigweed [4, 13]: 0
- Plant response rating, Pigweed [4, 14]: 0
- Plant response rating, Morningglory [5, 11]: 0
- Plant response rating, Morningglory [5, 12]: 0
- Plant response rating, Morningglory [5, 13]: 0
- Plant response rating, Morningglory [5, 14]: 0
- Plant response rating, Wheat [6, 11]: 0
- Plant response rating, Wheat [6, 12]: 60
- Plant response rating, Wheat [6, 13]: 20
- Plant response rating, Wheat [6, 14]: 70
- Plant response rating, Crabgrass, Large [7, 11]: 0
- Plant response rating, Crabgrass, Large [7, 12]: 70
- Plant response rating, Crabgrass, Large [7, 13]: 60
- Plant response rating, Crabgrass, Large [7, 14]: 90
- Plant response rating, Corn [8, 11]: 0
- Plant response rating, Corn [8, 12]: 60
- Plant response rating, Corn [8, 13]: 0
- Plant response rating, Corn [8, 14]: 20
- Plant response rating, Barnyardgrass [9, 15]: 30
- Plant response rating, Barnyardgrass [9, 16]: 70
- Plant response rating, Sedge, Umbrella [10, 15]: 0
- Plant response rating, Sedge, Umbrella [10, 16]: 0

SMILES: Cc1cc(-c2ccc(C(F)(F)F)cc2)nn1-c1c(OC(=O)C(C)(C)C)cnn(C)c1=O [Compound 2]
- Plant response rating, Foxtail, Giant [1, 17]: 90
- Plant response rating, Foxtail, Giant [1, 18]: 100
- Plant response rating, Velvetleaf [2, 17]: 40
- Plant response rating, Velvetleaf [2, 18]: 60
- Plant response rating, Barnyardgrass [3, 17]: 100
- Plant response rating, Barnyardgrass [3, 18]: 100
- Plant response rating, Pigweed [4, 17]: 0
- Plant response rating, Pigweed [4, 18]: 0
- Plant response rating, Morningglory [5, 17]: 0
- Plant response rating, Morningglory [5, 18]: 0
- Plant response rating, Wheat [6, 17]: 90
- Plant response rating, Wheat [6, 18]: 90
- Plant response rating, Crabgrass, Large [7, 17]: 80
- Plant response rating, Crabgrass, Large [7, 18]: 100
- Plant response rating, Corn [8, 17]: 90
- Plant response rating, Corn [8, 18]: 80
- Plant response rating, Barnyardgrass [9, 15]: 0
- Plant response rating, Barnyardgrass [9, 19]: 20
- Plant response rating, Barnyardgrass [9, 16]: 45
- Plant response rating, Barnyardgrass [9, 20]: 0
- Plant response rating, Sedge, Umbrella [10, 15]: 50
- Plant response rating, Sedge, Umbrella [10, 19]: 60
- Plant response rating, Sedge, Umbrella [10, 20]: 0

SMILES: Cn1ncc(O)c(-c2nn(-c3ccc(Cl)cc3)cc2Br)c1=O [Compound 31]
- Plant response rating, Foxtail, Giant [1, 12]: 90
- Plant response rating, Foxtail, Giant [1, 21]: 90
- Plant response rating, Foxtail, Giant [1, 14]: 100
- Plant response rating, Foxtail, Giant [1, 22]: 100
- Plant response rating, Velvetleaf [2, 12]: 0
- Plant response rating, Velvetleaf [2, 21]: 0
- Plant response rating, Velvetleaf [2, 14]: 0
- Plant response rating, Velvetleaf [2, 22]: 0
- Plant response rating, Barnyardgrass [3, 12]: 60
- Plant response rating, Barnyardgrass [3, 21]: 90
- Plant response rating, Barnyardgrass [3, 14]: 100
- Plant response rating, Barnyardgrass [3, 22]: 100
- Plant response rating, Pigweed [4, 12]: 0
- Plant response rating, Pigweed [4, 21]: 0
- Plant response rating, Pigweed [4, 14]: 0
- Plant response rating, Pigweed [4, 22]: 20
- Plant response rating, Morningglory [5, 12]: 0
- Plant response rating, Morningglory [5, 21]: 0
- Plant response rating, Morningglory [5, 14]: 0
- Plant response rating, Morningglory [5, 22]: 0
- Plant response rating, Wheat [6, 12]: 40
- Plant response rating, Wheat [6, 21]: 60
- Plant response rating, Wheat [6, 14]: 60
- Plant response rating, Wheat [6, 22]: 90
- Plant response rating, Crabgrass, Large [7, 12]: 60
- Plant response rating, Crabgrass, Large [7, 21]: 90
- Plant response rating, Crabgrass, Large [7, 14]: 100
- Plant response rating, Crabgrass, Large [7, 22]: 100
- Plant response rating, Corn [8, 12]: 10
- Plant response rating, Corn [8, 21]: 70
- Plant response rating, Corn [8, 14]: 50
- Plant response rating, Corn [8, 22]: 70
- Plant response rating, Barnyardgrass [9, 15]: 0
- Plant response rating, Barnyardgrass [9, 19]: 0
- Plant response rating, Barnyardgrass [9, 16]: 0
- Plant response rating, Barnyardgrass [9, 20]: 0
- Plant response rating, Sedge, Umbrella [10, 15]: 0
- Plant response rating, Sedge, Umbrella [10, 19]: 0
- Plant response rating, Sedge, Umbrella [10, 16]: 0
- Plant response rating, Sedge, Umbrella [10, 20]: 0
